What was measured:
[1] = Cell cytotoxicity assay, HUH7; assay type: cell-based; conditions: human; Huh7 cells, 5 days at 37° C., XTT dye
Description: (§1) Cells were seeded 24 hours prior to compound addition. Each test compound (serially diluted from 100 μM) was added to Huh7 (1.5×10^4 cells/well) or HepG2 (1.5×10^4 cells/well), and allowed to incubate for 5 days at 37° C. A medium only control was used to determine the minimum absorbance value and an untreated cell value. At the end of the growth period, XTT dye from Polysciences Europe GmbH was added to each well. The absorbance at 450 nm with a reference wavelength of 600 nm was read with a Sunrise (Tecan) using the medium only control wells as blanks. The 50% inhibition value (CC50) was determined by comparing the degree of inhibition (compared to cell control) plotted against compound concentration. Results from the dilution series were fitted to a sigmoidal dose-response curve.
(§2) Compounds of the invention were evaluated in these assays to assess the stability in human intestinal S9 fraction (HIS9) and human liver S9 fraction (HLS9), and for Cell Cytotoxicity in HUH7, HEP3B and HEPG2 cells.

[2] = Cell cytotoxicity assay, HEPG2; assay type: cell-based; conditions: human; HepG2 cells, 5 days at 37° C., XTT dye
Description: as §1, §2

[3] = Stability in human liver S9 fraction (HLS9); assay type: in vitro ADME; conditions: human liver S9 0.4 mg protein/mL, 5 μM test compound, 37° C.; for microsomal CLint at 5 μM: liver S9 fraction, pH 7.4
Description: (§3) Stability in Human Intestinal S9 Fraction (HIS9) and in Human Liver S9 Fraction (HLS9),
(§4) Stock solutions of each test compound (10 mM) were prepared in DMSO and stored at −20° C. Prior to the start of the experiment, the test compounds were diluted to 500 μM in 50% acetonitrile in water. The reaction mixture was prepared in a total volume of 250 μL containing 5 mM MgC2, 1 mM NADPH and 5 μM test compound in 50 mM potassium phosphate buffer (pH 7.4). The reaction was initiated by addition of human liver or intestinal S9 fraction with a final concentration of 0.4 mg protein/mL (Xeno Tech). The reaction mixture was incubated on an orbital shaker at 37° C. At the desired time points (0, 10, 30 and 60 minutes) aliquots of 50 μL were taken and the reaction was stopped by mixing with 150 μL acetonitrile containing internal standard. Standard solutions of each test compound were prepared from the 500 μM solution by diluting the solution to a final concentration of 5 μM in boiled human S9 (0.4 mg protein/mL), 5 mM MgCl2 and 50 mM potassium phosphate buffer (pH 7.4). The standards and samples were kept on ice for 30 min then centrifuged at 3 000 g for 20 minutes at 10° C., there after 10 μL of supernatant was mixed with 200 μL 50% acetonitrile in water. 0.5 μM of each test compound in 50% acetonitrile in water was injected into the LC/MS-MS to determine the daughter ion, declustring potential (DP), collision energy (CE) and collision cell exit potential (CXP) in order to develop a LC/MS-MS method. The compounds were separated using a C18 column with a QTRAP5500 system. The mobile phase consisted of solvent A (98% water, 2% acetonitrile, 0.1% acetic acid or 10 mM ammonium acetate) and solvent B (80% acetonitrile, 20% water, 0.1% acetic acid or 10 mM ammonium acetate). Elution of the compounds was performed by using a gradient of solvent B from 0% to 100%. 5 μL of standard points and samples were injected for analysis with QTRAP5500.
(§5) The amount of parent compound was determined on the basis of the peak area for each time point compared to standard which was set to 5 μM. Intrinsic clearance (CLint) and half-life (t1/2) were determined from the disappearance curves of the test compound using Excel software.

[4] = Stability in human intestinal S9 fraction (HIS9); assay type: in vitro ADME; conditions: human intestinal S9 0.4 mg protein/mL, 5 μM test compound, 37° C.
Description: as §3, §4, §5

[5] = system: Huh7; assay: Cell cytotoxicity assay, HUH7; assay type: cell-based; conditions: Huh7 cells, 5 days at 37° C., XTT dye
Description: as §1, §2

[6] = system: HEP3B; assay: Cell cytotoxicity assay, HEP3B; assay type: cell-based; conditions: HEP3B cells
Description: as §1, §2

[7] = system: HepG2; assay: Cell cytotoxicity assay, HEPG2; assay type: cell-based; conditions: HepG2 cells, 5 days at 37° C., XTT dye
Description: as §1, §2

Structure (SMILES)	CLint Intestinal S9 [4] [µL/min/mg]	CLint Liver S9 [3] [µL/min/mg]	CC50 at 5 days [1] [nM]	CC50 at 5 days [2] [nM]	microsomal CLint at 5 μM [3] [µL/min/mg]	microsomal CLint at 5 μM ([4]; intestinal S9 fraction, pH 7.4) [µL/min/mg]	CC50 [5] [nM]	CC50 [6] [nM]	CC50 [7] [nM]
COC(=O)[C@H](Cc1ccccc1)NP(=O)(OC[C@H]1OC[C@@H](n2ccc(N)nc2=O)O1)Oc1ccccc1 (single isomer, unassigned) [28 dia-2]	–	–	15600	2720	20	40	–	–	–
CC(C)OC(=O)[C@H](C)NP(=O)(OC[C@H]1OC[C@@H](n2ccc(N)nc2=O)O1)Oc1ccccc1 (single isomer, unassigned) [Example 2]	6	–	1750	248	13	–	–	–	–
CC(C)OC(=O)[C@H](C)NP(=O)(OC[C@H]1OC[C@@H](n2ccc(N)nc2=O)O1)Oc1ccccc1 (single isomer, unassigned) [Example 3]	6	–	3280	371	8	–	–	–	–
CC[C@@H](C)OC(=O)[C@H](C)NP(=O)(OC[C@H]1OC[C@@H](n2ccc(N)nc2=O)O1)Oc1ccc([Si](C)(C)C)cc1 (single isomer, unassigned; dia-1) [11 dia-1]	6	51	–	–	–	–	26	18	54
CCC[C@H](C)OC(=O)[C@H](C)NP(=O)(OC[C@H]1OC[C@@H](n2ccc(N)nc2=O)O1)Oc1ccc(C2CC2)cc1 (single isomer, unassigned; dia-1) [16 dia-1]	8	50	–	–	–	–	1200	106	151
CCCC(CCC)COC(=O)[C@H](C)NP(=O)(OC[C@H]1OC[C@@H](n2ccc(N)nc2=O)O1)Oc1ccccc1 (single isomer, unassigned; dia-2) [8 dia-2]	–	–	–	–	–	–	74	35	17
CC[C@@H](C)OC(=O)[C@H](C)NP(=O)(OC[C@H]1OC[C@@H](n2ccc(N)nc2=O)O1)Oc1ccc([Si](C)(C)C)cc1 (single isomer, unassigned; dia-2) [11 dia-2]	28	81	–	–	–	–	–	31	54
Nc1ccn([C@@H]2CO[C@H](COP(=O)(N[C@@H](Cc3ccccc3)C(=O)OCc3ccccc3)Oc3cccc(C4CC4)c3)O2)c(=O)n1 (single isomer, unassigned; dia-2) [12 dia-2]	300	97	–	–	–	–	5020	–	1090
CCCC(CCC)COC(=O)[C@H](C)NP(=O)(OC[C@H]1OC[C@@H](n2ccc(N)nc2=O)O1)Oc1cccc2ccccc12 (single isomer, unassigned; dia-2) [14 dia-2]	59	159	–	–	–	–	200	–	12
CCC(CC)COC(=O)[C@H](C)NP(=O)(OC[C@H]1OC[C@@H](n2ccc(N)nc2=O)O1)Oc1ccccc1 (single isomer, unassigned; dia-2) [15 dia-2]	36	95	–	–	–	–	26	–	19
CC(C)OC(=O)[C@H](C)NP(=O)(OC[C@H]1OC[C@@H](n2ccc(=O)[nH]c2=O)O1)Oc1ccccc1 (stereo partly drawn) [Example 1, (2S)-isopropyl 2-(((((2S,4S)-4-(2,4-dioxo-3,4-dihydropyrimidin-1(2H)-yl)-1,3-dioxolan-2-yl)methoxy)(phenoxy)phosphoryl)amino)propanoate]	6	–	> 100000	> 100000	12	–	–	–	–

Continued, in another order:

CLint Intestinal S9 [4] [µL/min/mg]	CLint Liver S9 [3] [µL/min/mg]	Structure (SMILES)	CC50 at 5 days [1] [nM]	CC50 at 5 days [2] [nM]	microsomal CLint at 5 μM [3] [µL/min/mg]	microsomal CLint at 5 μM ([4]; intestinal S9 fraction, pH 7.4) [µL/min/mg]	CC50 [5] [nM]	CC50 [6] [nM]	CC50 [7] [nM]
6	21	CC[C@@H](C)OC(=O)[C@H](C)NP(=O)(OC[C@H]1OC[C@@H](n2ccc(N)nc2=O)O1)Oc1ccccc1 (single isomer, unassigned; dia-1) [18 dia-1]	–	–	–	–	461	228	248
32	186	CCCC(CCC)COC(=O)[C@H](C)NP(=O)(OC[C@H]1OC[C@@H](n2ccc(N)nc2=O)O1)Oc1ccc(Br)cc1 (single isomer, unassigned; dia-1) [23 dia-1]	–	–	–	–	–	10	8.6
6	7	COC(=O)[C@H](C)NP(=O)(OC[C@H]1OC[C@@H](n2ccc(N)nc2=O)O1)Oc1ccccc1 (single isomer, unassigned; dia-1) [26 dia-1]	–	–	–	–	–	4340	1210
8	59	CCC[C@H](C)OC(=O)[C@H](C)NP(=O)(OC[C@H]1OC[C@@H](n2ccc(N)nc2=O)O1)Oc1ccc(C2CC2)cc1 (single isomer, unassigned; dia-2) [16 dia-2]	–	–	–	–	152	53	130
7	30	CC[C@@H](C)OC(=O)[C@H](C)NP(=O)(OC[C@H]1OC[C@@H](n2ccc(N)nc2=O)O1)Oc1ccccc1 (single isomer, unassigned; dia-2) [18 dia-2]	–	–	–	–	76	113	65
17	24	C[C@H](NP(=O)(OC[C@H]1OC[C@@H](n2ccc(N)nc2=O)O1)Oc1ccccc1)C(=O)OCc1ccccc1 (single isomer, unassigned; dia-2) [19 dia-2]	–	–	–	–	71	58	14
6	25	CCC[C@H](C)OC(=O)[C@H](C)NP(=O)(OC[C@H]1OC[C@@H](n2ccc(N)nc2=O)O1)Oc1ccccc1 (single isomer, unassigned; dia-2) [20 dia-2]	–	–	–	–	73	78	60
10	22	CCC(CC)OC(=O)[C@H](C)NP(=O)(OC[C@H]1OC[C@@H](n2ccc(N)nc2=O)O1)Oc1ccccc1 (single isomer, unassigned; dia-2) [21 dia-2]	–	–	–	–	70	–	48
34	43	C[C@H](NP(=O)(OC[C@H]1OC[C@@H](n2ccc(N)nc2=O)O1)Oc1cccc2ccccc12)C(=O)OC1CCCC1 (single isomer, unassigned; dia-2) [22 dia-2]	–	–	–	–	40	–	11
6	10	COC(=O)[C@H](C)NP(=O)(OC[C@H]1OC[C@@H](n2ccc(N)nc2=O)O1)Oc1ccccc1 (single isomer, unassigned; dia-2) [26 dia-2]	–	–	–	–	4730	4020	1060
51	34	CCCCCCCCCCCCCCCC(=O)Nc1ccn([C@@H]2CO[C@H](COP(=O)(N[C@@H](C)C(=O)OC(C)C)Oc3ccccc3)O2)c(=O)n1 (single isomer, unassigned; dia-2) [35 dia-2]	–	–	–	–	11	–	7
